The values below come from patent publication US9328099B2, “Cyanomethylpyrazole carboxamides as janus kinase inhibitors” (Merck Sharp & Dohme Corp., priority 2011, dated 2016).

The target in one test is JAK1 (Homo sapiens (Human), UniProt P23458). Kind of test: Jak Biochemical HTRF Assay, JAK1. Particulars: HTRF biochemical assay, GST-tagged catalytic domain; top concentration tested […]; read-out: JAK1 IC50. From the text: (§1) Jak Biochemical HTRF Assay Protocol
(§2) Subsequent reagent additions employed an Agilent Bravo.
(Time-resolved FRET reads energy transfer from a long-lived donor to a nearby acceptor.)

In the next test the target is JAK2 (Homo sapiens (Human), UniProt O60674). Kind of test: Jak Biochemical HTRF Assay, JAK2. Particulars: HTRF biochemical assay, GST-tagged catalytic domain; top concentration tested […].
Text: as §1, §2

Sequence of JAK1 (P23458 875-1153): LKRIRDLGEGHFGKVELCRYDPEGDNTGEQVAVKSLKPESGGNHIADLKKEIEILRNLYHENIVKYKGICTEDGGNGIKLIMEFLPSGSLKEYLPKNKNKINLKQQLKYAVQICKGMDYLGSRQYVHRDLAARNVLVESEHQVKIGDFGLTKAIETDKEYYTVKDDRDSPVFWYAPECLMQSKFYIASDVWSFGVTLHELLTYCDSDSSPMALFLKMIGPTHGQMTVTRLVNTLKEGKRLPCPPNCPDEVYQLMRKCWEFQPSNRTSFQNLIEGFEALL
Sequence of JAK2 (O60674 849-1124): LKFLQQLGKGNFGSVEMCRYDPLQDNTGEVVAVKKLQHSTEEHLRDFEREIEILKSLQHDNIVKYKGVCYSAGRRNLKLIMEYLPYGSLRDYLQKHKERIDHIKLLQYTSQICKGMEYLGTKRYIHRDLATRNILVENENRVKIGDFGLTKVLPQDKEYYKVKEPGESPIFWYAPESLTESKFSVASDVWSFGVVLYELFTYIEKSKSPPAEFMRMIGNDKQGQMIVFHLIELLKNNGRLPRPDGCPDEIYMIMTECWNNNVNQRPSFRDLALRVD

Take `Cc1ccc(N2CCC(CC#N)(n3cc(C(N)=O)c(Nc4ccc(F)cc4)n3)CC2)cc1` [Example 3-39, 1-[4-(cyanomethyl)-1-(4-methylphenyl)piperidin-4-yl]-3-[(4-fluorophenyl)amino]-1H-pyrazole-4-carboxamide]: the half-maximal inhibitory concentration (IC50) – broadly, the point on the concentration scale where inhibition reaches its midpoint – stood at 4 nM at JAK1 and 117 nM against JAK2.

On to `N#CCC1(n2cc(C(N)=O)c(Nc3ccc(F)cc3)n2)CCN(c2cc(F)cc(F)c2)CC1` [Example 3-40, 1-[4-(cyanomethyl)-1-(3,5-difluorophenyl)piperidin-4-yl]-3-[(4-fluorophenyl)amino]-1H-pyrazole-4-carboxamide], for which the IC50 turned out to be 3 nM on JAK1 and 67 nM against JAK2.

With `COc1ccccc1N1CCC(CC#N)(n2cc(C(N)=O)c(Nc3ccc(F)cc3)n2)CC1` [Example 3-41, 1-[4-(cyanomethyl)-1-(2-methoxyphenyl)piperidin-4-yl]-3-[(4-fluorophenyl)amino]-1H-pyrazole-4-carboxamide], the IC50 at JAK1 is 213 nM; at JAK2, over 1500 nM.

As for `Cc1cc(N2CCC(CC#N)(n3cc(C(N)=O)c(Nc4ccc(F)cc4)n3)CC2)ccc1F` [Example 3-42, 1-[4-(cyanomethyl)-1-(4-fluoro-3-methylphenyl)piperidin-4-yl]-3-[(4-fluorophenyl)amino]-1H-pyrazole-4-carboxamide], the IC50 on JAK1 turned out to be 12 nM; at JAK2, 287 nM.

Turning to `Cc1cccc(N2CCC(CC#N)(n3cc(C(N)=O)c(Nc4ccc(F)cc4)n3)CC2)c1F` [Example 3-43, 1-[4-(cyanomethyl)-1-(2-fluoro-3-methylphenyl)piperidin-4-yl]-3-[(4-fluorophenyl)amino]-1H-pyrazole-4-carboxamide], the concentration for half-maximal inhibition (IC50) on JAK1 amounted to 10 nM; against JAK2, 295 nM.

Turning to `N#CCC1(n2cc(C(N)=O)c(Nc3ccc(F)cc3)n2)CCN(c2cc(F)ccn2)CC1` [Example 3-44, 1-[4-(cyanomethyl)-1-(4-fluoropyridin-2-yl)piperidin-4-yl]-3-[(4-fluorophenyl)amino]-1H-pyrazole-4-carboxamide], the IC50 worked out at 0.2 nM on JAK1 and 6 nM on JAK2.

`N#CCC1(n2cc(C(N)=O)c(Nc3ccc(F)cc3)n2)CCN(c2ccc(F)c(F)c2)CC1` [Example 3-45, 1-[4-(cyanomethyl)-1-(3,4-difluorophenyl)piperidin-4-yl]-3-[(4-fluorophenyl)amino]-1H-pyrazole-4-carboxamide]: the IC50 amounted to 2 nM on JAK1 and 70 nM on JAK2.

`N#CCC1(n2cc(C(N)=O)c(Nc3ccc(F)cc3)n2)CCN(c2ccncc2)CC1` [Example 3-46, 1-[4-(cyanomethyl)-1-pyridin-4-ylpiperidin-4-yl]-3-[(4-fluorophenyl)amino]-1H-pyrazole-4-carboxamide]: the values for the IC50 on JAK1 and on JAK2 were 3 nM and 78 nM, respectively.

Take `Cc1ncncc1N1CCC(CC#N)(n2cc(C(N)=O)c(Nc3ccc(F)cc3)n2)CC1` [Example 3-47, 1-[4-(cyanomethyl)-1-(4-methylpyrimidin-5-yl)piperidin-4-yl]-3-[(4-fluorophenyl)amino]-1H-pyrazole-4-carboxamide]: the figures for the IC50 on JAK1 and on JAK2 were 13 nM and 181 nM, respectively.

For `Cc1cncc(N2CCC(CC#N)(n3cc(C(N)=O)c(Nc4ccc(F)cc4)n3)CC2)c1` [Example 3-48, 1-[4-(cyanomethyl)-1-(5-methylpyridin-3-yl)piperidin-4-yl]-3-[(4-fluorophenyl)amino]-1H-pyrazole-4-carboxamide], the results for the IC50 at JAK1 and on JAK2 were 1 nM and 26 nM, respectively.

In the case of `CC(C)(O)Cc1cccc(N2CCC(CC#N)(n3cc(C(N)=O)c(Nc4ccc(F)cc4)n3)CC2)n1` [Example 3-49, 1-{4-(cyanomethyl)-1-[6-(2-hydroxy-2-methylpropyl)pyridin-2-yl]piperidin-4-yl}-3-[(4-fluorophenyl)amino]-1H-pyrazole-4-carboxamide], the IC50 was 5 nM on JAK1 and 147 nM against JAK2.

`N#CCC1(n2cc(C(N)=O)c(Nc3ccc(F)cc3)n2)CCN(c2cccc(CF)n2)CC1` [Example 3-50, 1-{4-(cyanomethyl)-1-[6-(fluoromethyl)pyridin-2-yl]piperidin-4-yl}-3-[(4-fluorophenyl)amino]-1H-pyrazole-4-carboxamide]: the IC50 at JAK1 was 3 nM; against JAK2 it was 39 nM.

Regarding `N#CCC1(n2cc(C(N)=O)c(Nc3ccc(F)cc3)n2)CCN(c2cccnc2F)CC1` [Example 3-51, 1-[4-(cyanomethyl)-1-(2-fluoropyridin-3-yl)piperidin-4-yl]-3-[(4-fluorophenyl)amino]-1H-pyrazole-4-carboxamide], the IC50 on JAK1 was found to be 0.06 nM; at JAK2 it was 0.6 nM.

For the compound `Cc1ccc(N2CCC(CC#N)(n3cc(C(N)=O)c(Nc4ccc(F)cc4)n3)CC2)cn1` [Example 3-52, 1-[4-(cyanomethyl)-1-(6-methylpyridin-3-yl)piperidin-4-yl]-3-[(4-fluorophenyl)amino]-1H-pyrazole-4-carboxamide], the IC50 turned out to be 0.4 nM on JAK1 and 8 nM on JAK2.

Take `COc1ccc(N2CCC(CC#N)(n3cc(C(N)=O)c(Nc4ccc(F)cc4)n3)CC2)cn1` [Example 3-53, 1-[4-(cyanomethyl)-1-(6-methoxypyridin-3-yl)piperidin-4-yl]-3-[(4-fluorophenyl)amino]-1H-pyrazole-4-carboxamide]: the half-inhibitory concentration (IC50) on JAK1 is 0.4 nM; against JAK2 it was 9 nM.

Regarding `N#CCC1(n2cc(C(N)=O)c(Nc3ccc(F)cc3)n2)CCN(c2cccc(F)n2)CC1` [Example 3-54, 1-[4-(cyanomethyl)-1-(6-fluoropyridin-2-yl)piperidin-4-yl]-3-[(4-fluorophenyl)amino]-1H-pyrazole-4-carboxamide], the concentration for half-maximal inhibition (IC50) on JAK1 came out at 0.3 nM; against JAK2, 4 nM.

`N#CCC1(n2cc(C(N)=O)c(Nc3ccc(F)cc3)n2)CCN(c2cc(C(F)(F)F)ccn2)CC1` [Example 3-55, 1-{4-(cyanomethyl)-1-[4-(trifluoromethyl)pyridin-2-yl]piperidin-4-yl}-3-[(4-fluorophenyl)amino]-1H-pyrazole-4-carboxamide]: the half-maximal inhibitory concentration (IC50) on JAK1 came out at 1 nM; against JAK2, 75 nM.

Take `Cc1cc(N2CCC(CC#N)(n3cc(C(N)=O)c(Nc4ccc(F)cc4)n3)CC2)cnc1F` [Example 3-56, 1-[4-(cyanomethyl)-1-(6-fluoro-5-methylpyridin-3-yl)piperidin-4-yl]-3-[(4-fluorophenyl)amino]-1H-pyrazole-4-carboxamide]: the IC50 at JAK1 came to 1 nM; on JAK2 it was 23 nM.

Turning to `CC(C)(C)OC(=O)N1CCC(CC#N)(n2cc(C(N)=O)c(Nc3ccc(S(C)(=O)=O)cc3)n2)CC1` [Example 4-1, tert-Butyl 4-(4-carbamoyl-3-{[4-(methylsulfonyl)phenyl]amino}-1H-pyrazol-1-yl)-4-(cyanomethyl)piperidine-1-carboxylate], the IC50 at JAK1 came to 0.1 nM; against JAK2, 1 nM.

For the compound `CC(C)OC(=O)c1ccc(Nc2nn(C3(CC#N)CCN(C(=O)OC(C)(C)C)CC3)cc2C(N)=O)cc1` [Example 4-2, tert-butyl 4-[4-carbamoyl-3-({4-[(1-methylethoxy)carbonyl]phenyl}amino)-1H-pyrazol-1-yl]-4-(cyanomethyl)piperidine-1-carboxylate], the IC50 at JAK1 turned out to be 2 nM; against JAK2, 20 nM.

As for `CC(C)(C)OC(=O)N1CCC(CC#N)(n2cc(C(N)=O)c(Nc3cccc(Cn4ccnc4)c3)n2)CC1` [Example 4-3, tert-butyl 4-(4-carbamoyl-3-{[3-(1H-imidazol-1-ylmethyl)phenyl]amino}-1H-pyrazol-1-yl)-4-(cyanomethyl)piperidine-1-carboxylate], the IC50 at JAK1 was found to be 0.6 nM; against JAK2, 11 nM.

With `N#CCC1(n2cc(C(N)=O)c(Nc3cccc(Cn4nnc5ccccc54)c3)n2)CCN(C(=O)OCC(F)(F)F)CC1` [Example 4-4, 2,2,2-trifluoroethyl 4-(3-{[3-(1H-benzotriazol-1-ylmethyl)phenyl]amino}-4-carbamoyl-1H-pyrazol-1-yl)-4-(cyanomethyl)piperidine-1-carboxylate], the values for the IC50 on JAK1 and at JAK2 were 0.5 nM and 23 nM, respectively.

As to `CC(C)(C)OC(=O)N1CCC(CC#N)(n2cc(C(N)=O)c(Nc3cnc(C#N)nc3)n2)CC1` [Example 4-6, tert-butyl 4-{4-carbamoyl-3-[(2-cyanopyrimidin-5-yl)amino]-1H-pyrazol-1-yl}-4-(cyanomethyl)piperidine-1-carboxylate], the concentration for half-maximal inhibition (IC50) worked out at 3 nM at JAK1 and 38 nM against JAK2.

On to `CC(C#N)C1(n2cc(C(N)=O)c(Nc3ccc(F)cc3)n2)CCN(C(=O)OC(C)(C)C)CC1` (stereo not drawn) [Example 5-1, tert-Butyl 4-(4-carbamoyl-3-((4-fluorophenyl)amino)-1H-pyrazol-1-yl)-4-(1-cyanoethyl)piperidine-1-carboxylate], for which the IC50 on JAK1 was 34 nM; on JAK2, 162 nM.

Regarding `CC(C)(C)OC(=O)N1CCC(C(C#N)C2CC2)(n2cc(C(N)=O)c(Nc3ccc(F)cc3)n2)CC1` (stereo not drawn) [Example 5-2, tert-butyl 4-{4-carbamoyl-3-[(4-fluorophenyl)amino]-1H-pyrazol-1-yl}-4-[cyano(cyclopropyl)methyl] piperidine-1-carboxylate], the results for the IC50 at JAK1 and against JAK2 were 271 nM and 738 nM, respectively.

Take `N#CCC1(n2cc(C(N)=O)c(Nc3ccc(F)cc3)n2)CCC2(CC1)OCCO2` [Example 6-6, 1-[8-(cyanomethyl)-1,4-dioxaspiro[4.5]dec-8-yl]-3-[(4-fluorophenyl)amino]-1H-pyrazole-4-carboxamide]: the IC50 on JAK1 is 7 nM; against JAK2, 48 nM.

Regarding `CS(=O)(=O)c1ccc(Nc2nn(C3(CC#N)CCC4(CC3)OCCO4)cc2C(N)=O)cc1` [Example 6-7, 1-[8-(cyanomethyl)-1,4-dioxaspiro[4.5]dec-8-yl]-3-{[4-(methylsulfonyl)phenyl]amino}-1H-pyrazole-4-carboxamide], the IC50 on JAK1 amounted to 19 nM; against JAK2 it was 206 nM.
